In patent publication US20150094327A1, “COMPOSITIONS AND METHODS FOR […]” (priority 2012, published 2015):
“Also recorded” adds a separate entry of the source. Like-named read-outs stand apart in the source and are kept apart here.

Legend:
[1] = target: T1, fowlpox virus resolvase (Fowlpox virus, UniProt Q9J546); experiment: Fluorescence polarization (FP) assay of bulged DNA substrate cleavage by fowlpox resolvase; type: biochemical; settings: for activity in the FP assay: compared with compound 1 or with the N-hydroxy parent; for IC50: off-center bulge substrate 2 nM, 10 nM fowlpox resolvase, 37° C., 1 hr
T1 sequence (Q9J546 1-156): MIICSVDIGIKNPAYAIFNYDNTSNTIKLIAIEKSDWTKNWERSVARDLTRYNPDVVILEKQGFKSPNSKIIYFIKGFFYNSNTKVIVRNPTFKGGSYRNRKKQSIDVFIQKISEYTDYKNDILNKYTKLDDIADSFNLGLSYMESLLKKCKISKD

[2] = system: vaccinia virus WR; experiment: microbe, parasite or virus in culture; type: cell-based; settings: for IC50: Orthopoxvirus vaccinia
[3] = Log P (hydrophobicity)
[4] = system: fowlpox resolvase; experiment: Holliday junction substrate cleavage by fowlpox resolvase, gel based assay; type: biochemical, fowlpox virus; settings: authentic Holliday junction substrates in vitro
[5] = Cytotoxicity, CellTiter-Glo Luminescent Cell Viability Assay; settings: for Cytotoxicity, LD50: CellTiter-Glo; for cytotoxicity: compared with compound 1
[6] = target: variola topoisomerase (Variola virus, UniProt P32989); type: biochemical
[7] = 48 h, read-out: Antiviral assay, IC50

variola topoisomerase, sequence (P32989 whole entry, looked up): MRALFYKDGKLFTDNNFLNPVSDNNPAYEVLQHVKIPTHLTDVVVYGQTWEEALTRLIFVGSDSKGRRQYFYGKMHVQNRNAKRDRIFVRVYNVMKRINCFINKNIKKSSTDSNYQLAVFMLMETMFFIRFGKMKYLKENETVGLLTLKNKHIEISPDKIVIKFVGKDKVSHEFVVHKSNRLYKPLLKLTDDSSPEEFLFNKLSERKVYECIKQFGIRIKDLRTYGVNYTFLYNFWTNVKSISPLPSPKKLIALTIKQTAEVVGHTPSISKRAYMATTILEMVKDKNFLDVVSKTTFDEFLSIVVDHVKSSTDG

SMILES	activity in the FP assay [1]	IC50 [1]	IC50 [2, 7]	Log P [3]	inhibition of Holliday junction cleavage [4]	Cytotoxicity, LD50 [5]	IC50 ([2]; read-out: antiviral assays IC50)	cytotoxicity [5]	inhibition of variola topoisomerase activity [6]	antiviral activity [2]
CCOC(=O)c1c(O)c2cc(/C=C/c3ccc(C(F)(F)F)cc3)cnc2n(OCc2ccccc2)c1=O [Compound 6, (E)-Ethyl 1-(benzyloxy)-4-hydroxy-2-oxo-6-(4-(trifluoromethyl)styryl)-1,2-dihydro-1,8-naphthyridine-3-carboxylate]	abolished activity	> 250 µM	> 350 µM	5.50						
O=c1c(-c2ccccc2)c(O)c2cc(-c3cccc(-c4ccccc4)c3)cnc2n1O [Compound 1, 6-(Biphenyl-3-yl)-1,4-dihydroxy-3-phenyl-1,8-naphthyridin-2(1/H)-one]			4 ± 1 µM		effective inhibition	13 ± 4 µM	4 µM			
CCOC(=O)c1c(O)c2cc(-c3cccc(OC)n3)cnc2n(OCc2ccccc2)c1=O [Compound 8, Ethyl 1-(benzyloxy)-4-hydroxy-6-(6-methoxypyridin-2-yl)-2-oxo-1,2-dihydro-1,8-naphthyridine-3-carboxylate]	abolished activity	> 250 µM	> 350 µM	3.54						
COc1ccc(CCc2cnc3c(c2)c(O)c(-c2ccccc2)c(=O)n3O)cc1 [Compound 4, 1,4-Dihydroxy-6-(4-methoxyphenethyl)-3-phenyl-1,8-naphthyridin-2(1H)-one]	slightly less potent		11 ± 1 µM			10 ± 1 µM		no reduction in cytotoxicity		
CCOC(=O)c1c(O)c2cc(-c3cccc(OC)n3)cnc2n(O)c1=O [Compound 7, Ethyl 1,4-dihydroxy-6-(6-methoxypyridin-2yl)-2-oxo-1,2-dihydro-1,8-naphthyridine-3-carboxylate]	slight increase over compound 1	11 ± 2 µM	25 ± 16 µM	1.43	inhibition of cleavage	156 ± 28 µM		greatly increased	no Inhibitory activity; also recorded: lack of inhibition	slightly increased; also recorded: showed antiviral activity at concentrations below cytotoxic levels
CCOC(=O)c1c(O)c2cc(CCc3ccc(C(F)(F)F)cc3)cnc2n(O)c1=O [Compound 5, Ethyl 1,4-dihydroxy-2-oxo-6-(4-(trifluoromethyl)phenethyl)-1,2-dihydro-1,8-naphthyridine-3-carboxylate]		14 ± 7 µM	12 ± 1 µM	3.60		20 ± 12 µM				
O=c1c(-c2ccccc2)c(O)c2cc(/C=C/c3ccc(C(F)(F)F)cc3)cnc2n1OCc1ccccc1 [Compound 3]		> 250 µM	> 350 µM	6.85						
O=c1c(-c2ccccc2)c(O)c2cc(CCc3ccc(C(F)(F)F)cc3)cnc2n1O [Compound 2, 1,4-Dihydroxy-3-phenyl-6-(4-(trifluoromethyl)phenethyl)-1,8-naphthyridin-2(1H)-one]	slightly less potent	3 ± 2 µM	4 ± 1 µM	4.94		15 ± 12 µM		no reduction in cytotoxicity		
